Counter-ions that a name gives are not always drawn.
How the values were obtained:
[1] = tested on: MRC cell line; assay: Microscopic observation of treated normal cells (crystal violet); assay type: cell-based, human; conditions: 50 µg/mL, 100×, relative to untreated cells
Method: (§1) This experiment was performed as previously described in the procedure for antitumor activity. After the end of the treatment at 50 µg/mL concentration, the plates were inverted to remove the medium, the wells were washed three times with 300 µL of phosphate buffered saline (pH 7.2), and then the cells were fixed to the plate with 10% formalin for 15 min at room temperature. The fixed cells were then stained with 100 µL of 0.25% crystal violet for 20 min. The stain was removed, and the plates were rinsed using deionized water to remove the excess stain and then allowed to dry. The cellular morphology was observed using an inverted microscope (CKX41; Olympus, Tokyo, Japan) equipped with a digital microscopy camera to capture the images representing the morphological changes compared to control cells. The cytopathic effects (morphological alterations) were microscopically detected at 100×.

[2] = tested on: PC3 cell line; assay: Microscopic observation of treated tumor cells (crystal violet); assay type: cell-based, human; conditions: 50 µg/mL, 100×, relative to untreated cells
Method: as §1

[3] = tested on: human prostate carcinoma cell line PC3; assay: MTT viability assay, PC3 prostate carcinoma; assay type: cell-based; conditions: for IC50: 24 h
Method: (§2) For antitumor assays, the human prostate carcinoma cell line PC3 was suspended in medium at a concentration of 5 × 10^4 cell/well in Corning® 96-well tissue culture plates, then incubated for 24 h. The tested compounds were then added into 96-well plates (three replicates) to achieve eight concentrations for each compound. Six vehicle controls with media or 0.5 % DMSO were run for each 96-well plate as a control. […] Briefly, the media was removed from the 96-well plate and replaced with 100 µL of fresh culture RPMI-1640 medium without phenol red then 10 µL of the 12 mM MTT stock solution (5 mg of MTT in 1 mL of PBS) to each well including the untreated controls. The 96-well plates were then incubated at 37 °C and 5% CO2 for 4 h. An 85 µL aliquot of the media was removed from the wells, and 50 µL of DMSO was added to each well and mixed thoroughly with a pipette and incubated at 37 °C for 10 min. Then, the optical density was measured at 590 nm with the microplate reader (Sunrise, Tecan Inc, Morrisville, NC, USA) to determine the number of viable cells and the percentage of viability was calculated as [(ODt/ODc)] × 100% where ODt is the mean optical density of wells treated with the tested sample and ODc is the mean optical density of untreated cells. The relation between surviving cells and drug concentration was plotted to obtain the survival curve of each tumor cell line after treatment with the specified compound.

[4] = MTT cytotoxicity assay, normal lung fibroblasts MRC-5; conditions: human, MRC-5 normal lung fibroblast cells
Method: (§3) Preliminary in vitro anticancer activity of two compounds (2, and 3a) against the growth of five human cancer cell lines (prostate carcinoma PC3, liver carcinoma HepG-2, human colon cancer HCT-116, human breast cancer MCF-7, human lung cancer A-549) and normal human lung fibroblasts (MRC-5) were performed using the MTT assay as described in the experimental section. The inhibitory potency of the screened compounds against the tested cell lines was compared to vinblastine sulfate as a reference anticancer drug.
(§4) MRC-5 (normal human Lung fibroblast cells) were obtained from VACSERA Tissue Culture Unit. […] The normal human lung fibroblasts (MRC-5) cells were propagated in Dulbecco’s Modified Eagle’s Medium (DMEM) supplemented with 10% heat-inactivated fetal bovine serum, 1% L-glutamine, HEPES buffer, and 50µg/mL gentamycin. […] All cells were maintained at 37 °C in a humidified atmosphere with 5% CO2 and were subcultured two times a week. Chemicals used: Dimethyl sulfoxide (DMSO), MTT (3-(4,5-dimethylthiazol-2-yl)-2,5-diphenyl tetrazolium bromide), crystal violet, and trypan blue dye were purchased from Sigma (St. Louis, MO, USA). Fetal bovine serum, DMEM, RPMI-1640, HEPES buffer solution, L-glutamine, gentamycin, and 0.25% trypsin-EDTA were purchased from Lonza. Crystal violet stain (1%): composed of 0.5% (w/v) crystal violet and 50% methanol then made up to volume with deionized water and filtered through a Whatman No.1 filter paper.
(§5) For cytotoxicity assay, the normal human lung fibroblasts (MRC-5) cells were seeded in a 96-well plate at a cell concentration of 1 × 10^4 cells per well in 100 µL of growth medium. Fresh medium containing different concentrations of the test sample was added after 24 h of seeding. Serial two-fold dilutions of the tested chemical compound were added to confluent cell monolayers dispensed into 96-well, flat-bottomed microtiter plates (Falcon; Franklin, NJ, USA) using a multichannel pipette. The microtiter plates were incubated at 37 °C in a humidified incubator with 5% CO2 for a period of 24 h. Three wells were used for each concentration of the test sample. Control cells were incubated without the test sample and with or without DMSO. […] After incubation of the cells, viable cell yield was determined by a colorimetric method. After incubating for 24 h, the numbers of viable cells were determined by the MTT test. The cytotoxic concentration (CC50), the concentration required to cause toxic effects in 50% of intact cells, was estimated from graphic plots of the dose–response curve for each conc. using GraphPad Prism software (San Diego, CA. USA).

[5] = tested on: normal human lung fibroblasts (MRC-5); assay: as above; conditions: Homo sapiens, MRC5, 24 h, read-out: IC50 Values MRC-5
[6] = tested on: human colon cancer HCT-116; assay: MTT assay, HCT-116; assay type: cell-based; conditions: Table 1, MTT
Method: [The procedure below names another cell line; the source lists this cell line under the same test.] as §2

[7] = tested on: human lung cancer A-549; assay: MTT assay, A-549; assay type: cell-based; conditions: A549, Table 1, MTT
Method: [The procedure below names another cell line; the source lists this cell line under the same test.] as §2

[8] = tested on: liver carcinoma HepG-2; assay: MTT assay, HepG-2; assay type: cell-based; conditions: Homo sapiens, HepG2; Table 1, MTT
Method: [The procedure below names another cell line; the source lists this cell line under the same test.] as §2

[9] = tested on: human breast cancer MCF-7; assay: MTT assay, MCF-7; assay type: cell-based; conditions: MCF7, Table 1, MTT
Method: [The procedure below names another cell line; the source lists this cell line under the same test.] as §2

[10] = tested on: PC3 and MRC-5 cell lines; assay: Selectivity index, CC50 on normal cells / IC50 on cancer cells; assay type: cell-based, human; conditions: CC50 on MRC-5 / IC50 on PC3
Excerpt: The selectivity index (SI) is a measure of the drug candidate’s selectivity towards cancer cells rather than normal cells. It can be calculated as the ratio between the tested compound CC50 on normal cells and its IC50 on cancer cells.

[11] = tested on: normal human lung fibroblasts (MRC-5)
Method: as §3, §4, §5

[12] = Homo sapiens, Table 2, MTT, three replicates

| IC50 [3, 12] | Compound | Morphological changes of MRC cells [1] | Morphological changes of PC3 cells [2] | CC50 at 24 h [4] | SI (selectivity index) [10] | further results |
| --- | --- | --- | --- | --- | --- | --- |
| 72 ± 2 µM | N#Cc1c(-c2ccccc2)nc2n(c1=O)C(c1ccccc1)C(c1ccccc1)=NN2 (stereo not drawn) [Compound 5, 6-Oxo-3,4,8-triphenyl-4,6-dihydro-1H-pyrimido[2,1-c]-1,2,4-triazine-7-carbonitrile] | no significant apoptotic effect | the cancer cells shrank and lost their normal shape | 263 ± 7 µM | – | – |
| – | N#Cc1c(-c2ccccc2)nc(NN)[nH]c1=O [Compound 2, 2-Hydrazino-6-oxo-4-phenyl-1,6-dihydropyrimidine-5-carbonitrile] | – | – | 532 ± 14 µM | 2.05 | IC50 ([3]; Homo sapiens, Table 1, MTT): 258 µM; IC50 [5]: 532 µM; IC50 [6]: 180 µM; IC50 [7]: 264 µM; IC50 [8]: 99 µM; IC50 [9]: 236 µM |
| 88 ± 2 µM | COc1cccc(/C=N/Nc2nc(-c3ccccc3)c(C#N)c(=O)[nH]2)c1 [Compound 3f, 2-(2-(3-Methoxybenzylidene)hydrazinyl)-6-oxo-4-phenyl-1,6-dihydropyrimidine-5-carbo-nitrile] | no significant apoptotic effect | the cancer cells shrank and lost their normal shape | 339 ± 11 µM | – | – |
| 21 ± 1 µM | N#Cc1c(-c2ccccc2)nc(N/N=C/c2ccc(Br)cc2)[nH]c1=O [Compound 3b, 2-(2-(4-Bromobenzylidene)hydrazinyl)-6-oxo-4-phenyl-1,6-dihydropyrimidine-5-carbonitri-le] | no significant apoptotic effect | the cancer cells shrank and lost their normal shape | 147 ± 4 µM | – | – |
| – | 3-Hydroxy-6-oxo-8-phenyl-2,6-dihydro-1H-pyrimido[2,1-c]-1,2,4-triazine-7-carbonitrile [Compound 6] | – | – | – | 2.17 | IC50 ([3]; Table 2, MTT, three replicates): 208 ± 7 µM; CC50 [11]: 453 ± 13 µM |
| 37 ± 2 µM | N#Cc1c(-c2ccccc2)nc(NN=Cc2ccc([N+](=O)[O-])cc2)[nH]c1=O [Compound 3i, 2-(2-(4-Nitrobenzylidene)hydrazinyl)-6-oxo-4-phenyl-1,6-dihydropyrimidine-5-carbonitrile] | – | – | 82 ± 3 µM | 2.18 | – |
| 603 ± 19 µM | N#Cc1c(-c2ccccc2)nc(N/N=C2\C(=O)Nc3ccccc32)[nH]c1=O [Compound 4, 6-Oxo-2-(2-(isatin-3-ylidene)hydrazinyl)-4-phenyl-1,6-dihydropyrimidine-5-carbonitrile] | – | – | 348 ± 11 µM | 0.57 | – |
| 64 ± 3 µM | N#Cc1c(-c2ccccc2)nc(N/N=C/c2ccc(O)cc2)[nH]c1=O [Compound 3g, 2-(2-(4-Hydroxybenzylidene)hydrazinyl)-6-oxo-4-phenyl-1,6-dihydropyrimidine-5-carboni-trile] | no significant apoptotic effect | the cancer cells shrank and lost their normal shape | 311 ± 14 µM | – | – |
| 182 ± 5 µM | Cc1ccccc1/C=N/Nc1nc(-c2ccccc2)c(C#N)c(=O)[nH]1 [Compound 3e, 2-(2-(2-Methylbenzylidene)hydrazinyl)-6-oxo-4-phenyl-1,6-dihydropyrimidine-5-carboni-trile] | – | – | 428 ± 16 µM | 2.34 | – |
| – | CC[C@]1(O)C[C@@H]2CN(CCc3c([nH]c4ccccc34)[C@@](C(=O)OC)(c3cc4c(cc3OC)N(C)[C@H]3[C@@](O)(C(=O)OC)[C@H](OC(C)=O)[C@]5(CC)C=CCN6CC[C@]43[C@@H]65)C2)C1 [Vinblastine sulfate, reference compound] | – | – | 65 ± 2 µM | 1.40 | IC50 ([3]; Homo sapiens, Table 1, MTT): 46 µM; IC50 [5]: 65 µM; IC50 [6]: 4 µM; IC50 [7]: 27 µM; IC50 [8]: 3 µM; IC50 [9]: 6 µM |
| 349 ± 9 µM | N#Cc1c(-c2ccccc2)nc(N/N=C/c2ccc(Cl)cc2)[nH]c1=O [Compound 3c, 2-(2-(4-Chlorobenzylidene)hydrazinyl)-6-oxo-4-phenyl-1,6-dihydropyrimidine-5-carbonitri-le] | – | – | 675 ± 19 µM | 1.93 | – |
| – | N#Cc1c(-c2ccccc2)nc(NN=Cc2ccccc2)[nH]c1=O [Compound 3a, 2-(2-Benzylidenehydrazinyl)-6-oxo-4-phenyl-1,6-dihydropyrimidine-5-carbonitrile] | – | – | 92 ± 3 µM | 0.99 | IC50 ([3]; Homo sapiens, Table 1, MTT): 93 µM; IC50 [5]: 92 µM; IC50 [6]: 149 µM; IC50 [7]: 98 µM; IC50 [8]: 59 µM; IC50 [9]: 81 µM |
| 17 ± 1 µM | N#Cc1c(-c2ccccc2)nc(N/N=C/c2ccccc2Cl)[nH]c1=O [Compound 3d, 2-(2-(2-Chlorobenzylidene)hydrazinyl)-6-oxo-4-phenyl-1,6-dihydropyrimidine-5-carbonitri-le] | – | – | 44 ± 1 µM | 2.52 | fold more potent than vinblastine sulfate ([3]; PC3, from IC50 values): 2 to 3 fold |
| 44 ± 2 µM | N#Cc1c(-c2ccccc2)nc(NN=CC=Cc2ccccc2)[nH]c1=O [Compound 3h, 6-Oxo-4-phenyl-2-(2-(3-phenylallylidene)hydrazinyl)-1,6-dihydropyrimidine-5-carbonitrile] | no significant apoptotic effect | the cancer cells shrank and lost their normal shape | 180 ± 9 µM | – | – |

Reference: paper PMC9370056, “Pyrimidines-Based Heterocyclic Compounds: Synthesis, Cytoxicity Evaluation and Molecular Docking” (Molecules, 2022)
